{"source": "patent US9096607B2", "about": "“Tumor necrosis factor inhibitors” (THE TRUSTEES OF THE UNIVERSITY OF PENNSYLVANIA, priority 2005, dated 2015)", "key": {"[1]": {"system": "TNF-α signaling in L929 cells", "test": "Inhibition of TNF-α signaling in L929 cells (western blot)", "type": "cell-based, murine", "settings": "2 h pretreatment, TNF-α 20 ng/mL", "experimental": "The effect of compound I-9 on TNF-α signaling was examined in L929 cells (American Type Culture Collection, Manassas, Va.). Cells were cultured in RPMI (Invitrogen) containing 5% fetal bovine serum. Cells (1×10^6/well) were cultured in 6-well plates for 12 h, treated with or without small molecule for 2 h, and then stimulated with TNF-α at 20 ng/mL for the indicated periods. Cells were then washed with ice-cold phosphate-buffered saline and lysed with lysis buffer. Cell lysates ([…]) were separated by 12% SDS-PAGE, electroblotted onto nitrocellulose membrane (Osmonics, Westborough, Mass.), and probed with anti-phospho-IκBα, anti-IκBα, anti-phospho-p38, anti-p38, and anti-β-actin antibodies (Cell Signaling Technology, Inc., Beverly, Mass.) and developed using an enhanced chemiluminescence (ECL) system (Amersham Biosciences, Piscataway, N.J.)."}, "[2]": {"system": "L929 cells", "test": "Inhibition of TNF-α mediated cytolysis of L929 cells (Alamar Blue)", "type": "cell-based, murine", "settings": "TNF-α 100 pg/mL, actinomycin D 1 μM", "excerpt": "L929 cultured murine fibroblasts cells were obtained from American Type Culture Collection (Manassas, Va.). Tissue culture reagents were from Invitrogen or Sigma-Aldrich. TNF-α and Actinomycin D were from Sigma-Aldrich. Alamar Blue reagents (Cell Titer Blue™) were from Promega. The test compounds I-1 through I-16, II-1 through II-8, and III-1 through III-3 were obtained commercially or can be prepared as described above. The test compounds were individually dissolved in dimethylsulfoxide (DMSO). The test compounds were maintained at 4° C. when not in use. Other reagents were high-purity (ACS-grade, HPLC-grade, MilliQ water, or similar).\nStock L929 cells were grown on tissue culture plastic in complete DMEM (Dulbecco's Modified Eagles Medium) supplemented with 10% FBS (Fetal Bovine Serum), NEAA (non-essential amino acids), and glutamine. L929 cells were plated using the same medium on 96-well tissue culture plates at high density (i.e., ˜4×10^4 cells/well, or similar) before use.\nApproximately 20 h after plating, the L929 cells on 96-well plates were re-fed with fresh medium containing one of the test compounds in a concentration selected from 100 μM, 50 μM, 25 μM as a “pre-treatment.” Approximately 30-60 min later, samples were treated with an additional amount of test compound (in the same amount and at the same concentration as the pre-treatment) prepared in medium containing TNF-α (200 pg/mL), and actinomycin D (2 μM). The final concentration of TNF-α in assays was 100 pg/mL. The final concentration of actinomycin D in assays was 1 μM. The plates were incubated for an additional 22-23 h, the Alamar Blue assay reagents were added and metabolic cell viability was determined from reduction of a fluorogenic Alamar Blue derivative.\nThe temperature was maintained at 37° C. with 5% CO2 and humidified. The metabolic viability was measured 1-2 h after addition of assay reagents/Alamar Blue derivative using TECAN SaFire fluorescence plate reader (Tecan Group Ltd., Maennedorf, Switzerland).\nInhibition of TNF-α induced cytolysis by a test compound (X) at a given concentration (y) was calculated as follows: […]"}, "[3]": {"system": "EGF-signaling in NE91 cells", "test": "Effect on EGF-signaling in NE91 cells (western blot)", "type": "cell-based", "settings": "2 hr treatment, EGF 100 ng/mL", "experimental": "To verify the effects of I-9 were specific to TNF-α signaling, the effect of I-9 on EGF-signaling was tested in NE91 cells (American Type Culture Collection, Manassas, Va.). NE91 cells were cultured in RPMI medium containing 10% FBS in 6-well plate at the density of 1×10^6/well for 12 hr, followed by 2 hr treatment with or without I-9. Cells were then stimulated with EGF at 100 ng/mL for the indicated time. Cells were then lysed and analyzed by western blotting in the same manner as described above for analysis of TNF-α signaling in L929 cells."}, "[4]": {"molecular_target": "T1, TNF-R1 (Homo sapiens, UniProt P19438)", "T1 construct": "The ectodomain of wild type TNF receptor 1 was obtained by PCR from pKP13; made in house", "T1 sequence (P19438 30-211 limits assumed)": "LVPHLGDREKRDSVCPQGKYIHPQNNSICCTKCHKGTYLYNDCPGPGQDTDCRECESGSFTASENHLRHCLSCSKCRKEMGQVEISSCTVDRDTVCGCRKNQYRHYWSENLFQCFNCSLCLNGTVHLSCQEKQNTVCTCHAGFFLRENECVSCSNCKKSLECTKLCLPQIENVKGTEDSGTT", "test": "Acrylamide quenching of intrinsic tryptophan fluorescence of TNF-R1 (Stern-Volmer)", "type": "binding", "settings": "test compound 20 μM, 5 μM TNF-R1; TNF-R1 alone 14.4±0.2 M^−1", "experimental": "The residue W107 in the WP9 loop fluoresces around 340 nm. In this set of experiments, the resultant concentration of quencher ranged up to 0.25 M, quenching 77.4% of the total intrinsic fluorescence of TNF-R1. […] Thus binding of 1-9 to the receptor changed the disposition of tryptophan-107.\nQuenching experiments with acrylamide were performed in stirred cells, at 25° C., titrating from a stock of 1 M acrylamide by adding 2.5 μl of acrylamide each time. Recombinant TNF-R1 were at the concentration of 5 μM in 1% DMSO. Tryptophan emission, monitored at 340 nm, was observed using 295 nm excitation. Intensity data following quencher additions were averaged over a 10-sec collection and were corrected for background emission (paired control lacking of protein). Intensities, F, at given quencher concentration, [Q], were analyzed using the Stern-Volmer equation, F0/F=1+KS.V·[Q] • Where F0 is the emission intensity of the protein in the absence of quencher, and KS.V is the Stern-Volmer constant for quenching, given by the slope when data are plotted as Fo/F versus [Q].\nFor synthesized small molecules, a test compound at 20 μM was pre-incubated with 5 μM TNF-R1 in 1% DMSO for 30 min, and titrated with 1 M acrylamide the same way as TNF-R1 alone. The F0/F was analyzed using the Stern-Volmer equation, and two slopes from TNF receptor and from TNF receptor with the test compound were compared."}, "[5]": {"system": "TNF-α signaling in THP1 cells", "test": "Inhibition of TNF-α signaling in THP1 cells (western blot)", "type": "cell-based, Human", "settings": "2 hr pretreatment", "experimental": "THP1 cells (Human acute monocytic leukemia cell line, American Type Culture Collection, Manassas, Va.) were cultured in RPMI with the supplement of 50 mM HEPES, 1 mM Na Pyruvate, 50 μM of 2-ME, 2.5 mg/mL of glucose, […] of gentamicin and 10% of FBS. Cells were cultured in 12-well plate at a density of 6×10^5/well with supplement of 100 ng/mL PMA. Cells were plated 72 hrs to differentiate. Cells were then pretreated with or without small molecule for 2 hr, followed by treatment with TNF-α at 20 ng/mL at the indicated periods. Cells were then lysed and analyzed by western blotting in the same manner as described above for L929 cells."}}}
{"smiles": "CC(=O)Oc1ccc(C(C)(c2ccc(OC(C)=O)cc2)c2ccc(OC(C)=O)cc2)cc1", "note": "[Compound I-9, 1,1,1-Tris-(4-acetoxyphenyl)ethane]", "values": [{"measurement": "production of phospho-IκBα following TNF-α treatment", "setting": "[1]", "result": "reduced"}, {"measurement": "production of phospho-p38 following TNF-α treatment", "setting": "[1]", "result": "reduced"}, {"measurement": "% Inhibition at: 25 μM", "setting": "[2]; 25 μM compound", "result": 37.2, "unit": "%"}, {"measurement": "% Inhibition at: 50 μM", "setting": "[2]; 50 μM compound", "result": 65.2, "unit": "%"}, {"measurement": "% Inhibition at: 100μM", "setting": "[2]; 100 μM compound", "result": 50.9, "unit": "%"}, {"measurement": "changes in EGF-induced signaling", "setting": "[3]", "result": "failed to induce changes"}, {"measurement": "Stern-Volmer constant for TNF-R1 quenching by acrylamide in the presence of the test compound", "setting": "[4]", "result": "11.6 ± 0.2", "unit": "M⁻¹"}, {"measurement": "TNF-α mediated I-kBα phosphorylation", "setting": "[5]", "result": "inhibited"}, {"measurement": "TNF-α mediated p38 phosphorylation", "setting": "[5]", "result": "inhibited"}]}
